The source made the active and inactive calls. No rule for the calls is given here.
Assay: blockers of mitochondrial fusion, WT vs mutant – cell-based, chemical genetic, wild-type and mutant, confirmation (AID 1361)
Conditions: Cell-based mitochondrial fusion phenotype, imaging
[1] = mutant cells, measured here: mutant cell line IC50

SMILES	IC50 (WT cells)	IC50 [1] [µM]
COc1ccc2nc(NC(=O)CN(c3ccc(C)cc3)S(=O)(=O)c3c(C)nn(C)c3C)sc2c1	16 µM	> 25
c1ccc(N(c2ccccc2)c2nc(N3CCCC3)nc(-n3ccnc3)n2)cc1	15.5 µM	> 25
C(=N\Nc1nc(Nc2ccccc2)nc(N2CCCCC2)n1)/c1ccco1	22.5 µM	> 25
Cc1c(N2C(=O)c3cccc4cccc(c34)C2=O)c(=O)n(-c2ccccc2)n1C	> 25 µM (inactive)	> 25
CC(C)C(=O)N(c1cc2sc(=O)oc2c2ccccc12)S(=O)(=O)c1cccs1	7.48 µM	20.7
Cc1nc(N2CCCCC2)c2c(-c3cccs3)csc2n1	22.4 µM	> 25
Cc1nn(-c2ccccc2)c2sc(C(=O)N(Cc3ccco3)C(C)C(=O)NC(C)(C)C)cc12 (stereo not given)	7.45 µM	19.6
O=C(N/N=C/c1c(Cl)cccc1Cl)c1n[nH]c2c1CCCC2	> 25 µM (inactive)	> 25
COCCCNC(=O)CS(=O)(=O)Cc1nc(-c2cccc(OC)c2)oc1C	> 25 µM (inactive)	> 25
CC(C)(C)C1CCc2c(sc(NC(=O)CSc3ncn[nH]3)c2C#N)C1 (stereo not given)	15.8 µM	> 25
CC(C)N(C(=S)NC1CCCCC1)c1ccccc1	> 25 µM (inactive)	> 25
COc1cc(CNCCO)cc(Br)c1OCc1ccccc1Cl	> 25 µM (inactive)	23.8
CCc1ccccc1NC(=S)N=Nc1c(O)n(C)c2ccc(S(=O)(=O)N3CCOCC3)cc12	1.37 µM	9.5
CCCCCC(O)c1cccc(OCc2ccc3ccccc3n2)c1 (stereo not given)	14.9 µM	> 25
O=C(C1=C[C@H](c2csc3ccccc23)C[C@H](OCc2ccc(CO)cc2)O1)N1CCN(Cc2ccccc2)CC1	4.03 µM	10.5
CC1CCN(C(=O)/C=C/c2ccc(C(C)(C)C)cc2)CC1	> 25 µM (inactive)	> 25
CN1CCC2(CC1)Nc1nc(SCc3ccc(Cl)cc3)nn1C1=C2CN(C)CC1	> 25 µM (inactive)	> 25
CCCc1c(C)[nH]c2ccc(NC(C)=O)cc2c1=O	> 25 µM (inactive)	> 25
CCC(C(=O)OCC(=O)Nc1ccc(SC(F)F)cc1)c1ccccc1 (stereo not given)	17.6 µM	> 25
COC(=O)[C@@H]1CC[C@H](C)[C@@H](c2ccc(C)cc2)N1C(=O)c1ccc(/C=N/O[C@@H](C)CN2CCCCc3nc(C)c(C)cc32)cc1	6.19 µM	> 25
O=C(CSc1nnc(CCc2ccccc2)n1-c1ccc(Cl)cc1)c1ccccc1	17.2 µM	> 25
NC(=O)c1ccc(NC(=O)COC(=O)c2c3c(nc4ccccc24)/C(=C\c2ccc4c(c2)OCO4)CCC3)cc1	8.77 µM	> 25
CCCC[n+]1c(-c2ccc(Cl)cc2Cl)csc1Nc1ccccc1	6.52 µM	> 25
COc1ccc(/C=C/C(=O)c2ccc(O)cc2)cc1COc1ccc(F)cc1	11.9 µM	> 25
O=C(O)Cn1c(CC(=O)N2CCCC2)nc2ccccc21	> 25 µM (inactive)	> 25
CCOc1ccc(NS(=O)(=O)c2cnc(Cl)c(Cl)c2)cc1	20.5 µM	> 25
CCOc1cccc(Oc2ncccc2C(=O)/C(C#N)=C/N(C)C)c1	> 25 µM (inactive)	> 25

SMILES	IC50 (WT cells)	IC50 [1] [µM]
CC(C)C(=O)Nc1cc(S(=O)(=O)Nc2ccc(Cl)cc2)ccc1Cl	22 µM	> 25
c1csc(C(c2nnnn2C2CCCC2)N2CCCC3(CCCCC3)C2)c1 (stereo not given)	4.94 µM	> 25
CN1/C(=C\C=Nc2ccc3ccccc3c2)C(C)(C)c2ccccc21	> 25 µM (inactive)	21.8
CC(=O)N(Cc1ccc(F)cc1)C1=C(NCCc2ccccc2)C(=O)c2ccccc2C1=O	24 µM	> 25
COc1ccc(C2CC(=O)c3cnc(Nc4cc(C)cc(C)c4)nc3C2)cc1 (stereo not given)	> 25 µM (inactive)	> 25
O=C(NCc1ccco1)c1cc(-c2ccccc2)on1	> 25 µM (inactive)	> 25
CCN1CCN(CCNC(=O)c2ccc(/C=C3\Sc4ccccc4N(Cc4ccccc4F)C3=O)cc2)CC1	18.9 µM (inactive)	> 12.5
O=C1c2ccccc2OC2(C=Cc3ccccc3O2)N1Cc1ccccc1 (stereo not given)	5.8 µM	> 25
Cc1cccc(OCC(=O)Nc2nc3ccc([N+](=O)[O-])cc3s2)c1C	> 25 µM (inactive)	> 25
O=C(CCc1ccccc1)Nc1ncc2c(n1)CCCC2=O	> 25 µM (inactive)	> 25
CC(C)CC(=O)NC(=S)N(Cc1ccccc1)Cc1ccccc1	19.2 µM	> 25
COC(=O)CN1C(c2cccc(Cl)c2)=Nc2ccc(Cl)cc2C1c1ccccc1 (stereo not given)	7.73 µM	24
CCC(C)(C)c1ccc(OCC(=O)N(C)C)c(C(C)(C)CC)c1	20.9 µM	> 25
COc1ccc(NC(=S)N(CCc2c(C)[nH]c3ccc(C)cc23)Cc2ccco2)cc1	8.8 µM	> 25
CCCCNC(=S)N(C)/N=C/c1c(F)c(F)c(F)c(F)c1F	> 25 µM (inactive)	> 25
O=C(NCc1nnc(SCc2ccc(C(F)(F)F)cc2)n1-c1ccccc1)C12CC3CC(CC(C3)C1)C2	18 µM	> 25
N#Cc1sc2nc(C3CC3)cc(-c3ccc(Cl)cc3)c2c1N	11.7 µM	19.5
CC(C)OC(=O)C(C(=O)C(F)(F)F)c1cc(NS(=O)(=O)c2ccc3ccccc3c2)c2ccccc2c1O (stereo not given)	15.1 µM	> 25
CC(C)CNC(=S)N1CCN(C(c2ccccc2)c2ccccc2)CC1	14.7 µM	> 25
CCOC(=O)C1=C(C)Nc2sc(C(=O)c3ccc(F)cc3)c(N)c2C1c1ccc(C(=O)OC)cc1 (stereo not given)	2.57 µM	> 25
Cc1ccc(OCCSc2nc(NC(C)C)nc(NC(C)C)n2)cc1	12.3 µM	> 25
CC(C)C(=O)N1CCC(CN=Cc2c(O)n(C3CCCCC3)c(=O)n(C3CCCCC3)c2=O)CC1	23 µM	> 25
O=C(CCn1nnc2ccccc21)Nc1nnc(Cc2ccccc2)s1	> 25 µM (inactive)	> 25
CCOC(=O)c1ccc2c(c1)n(CC)c(/C=C/N(C)c1ccccc1)[n+]2CC	> 25 µM (inactive)	> 25
CCCC1(CCC)NC(=O)N(CC(=O)Nc2cccc(OC)c2)C1=O	> 25 µM (inactive)	> 25
CC1CC(C)CN(C(=O)c2cc3cc(Br)cc(Br)c3o2)C1 (stereo not given)	13.7 µM	22.5
O=C(CN1CCc2ccccc2C1)Nc1ccccc1N1CCCCCC1	10.3 µM	> 25

SMILES	IC50 (WT cells)	IC50 [1] [µM]
CC1(C)CC(C(CCN(Cc2ccccc2)C(=O)c2ccco2)c2ccc(F)cc2)CCO1 (stereo not given)	16.8 µM	> 25
O=C(Nc1ccccc1Oc1ccccc1)c1cc([N+](=O)[O-])ccc1Cl	6.46 µM	19.6
Cc1nn(-c2ccccc2)c(C)c1C(=O)OCC(=O)N1CCN(S(=O)(=O)c2ccccc2)CC1	> 25 µM (inactive)	> 25
CSC(=S)N/N=C/c1c[nH]c2ccccc12	7.53 µM	11.2
O=S(Cc1ccc(Br)cc1)Cc1nnc(SCc2c(F)cccc2Cl)n1-c1ccccc1 (stereo not given)	> 25 µM (inactive)	> 25
Cc1cc2c3c(c1)C1(SCC(=O)N1c1ccc(F)cc1)C(=O)N3C(C)(C)CC2C (stereo not given)	> 25 µM (inactive)	> 25
Cn1c(=O)n(C)c2cc([N+](=O)[O-])c(N3CCN(S(=O)(=O)c4ccc(C(C)(C)C)cc4)CC3)cc21	5.99 µM	> 25
COC(=O)c1ccc(/C=C(\C#N)c2nc3ccccc3s2)cc1	> 25 µM (inactive)	> 25
Cc1cc(NC(=S)N(Cc2ccc(Cl)cc2)Cc2ccc(C(=O)O)cc2)ccc1Cl	17.6 µM	> 25
COc1ccc(CN(C)C2c3ccccc3-c3ccccc32)cc1	16.7 µM	17
O=C(Cc1c(O)c2ccccc2[nH]c1=O)NCc1ccccc1F	> 25 µM (inactive)	> 25
CCc1ccc2ncc(S(=O)(=O)c3ccc(C)c(C)c3)c(N3CCCC3)c2c1	14.6 µM	> 25
CC(=O)Nc1sc2c(c1C(c1ccc(Cl)cc1)N1CCOCC1)CCCC2 (stereo not given)	13 µM	> 25
Cc1cc(NCCCn2ccnc2)n2ncc(-c3ccc(Cl)cc3)c2n1	11.1 µM	17.9
CC(C)/C(=N/Nc1ccccc1[N+](=O)[O-])c1ccccc1	> 25 µM (inactive)	> 25
CC1CC1C(=O)OCC(=O)NCc1ccc(Cl)cc1Cl (stereo not given)	> 25 µM (inactive)	> 25
CCC(=O)Nc1ccc(N2CCN(CC)CC2)c(Cl)c1	> 25 µM (inactive)	> 25
COc1ccc(O[C@H]2C=C[C@@H](c3ccccc3)O[C@@H]2COC(=O)CC/C(C)=N/O[C@@H](C)CN2CCCCc3nc(C)c(C)cc32)cc1	12.1 µM	> 25
COC(=O)C1CCN(C(=O)c2cc(OC)c(OC)c(OC)c2)CC1	> 25 µM (inactive)	> 25
CCOC(=O)C1=C(CC)Nc2ccccc2N/C1=N\S(=O)(=O)c1ccc2ccccc2c1	11 µM	> 25
COc1ccc(C(C(=O)Nc2ccc(F)cc2)N(C(=O)Cn2nnc3ccccc32)C2CC2)cc1 (stereo not given)	> 25 µM (inactive)	> 25
CCN(CC)CCNC(=O)Cn1nc(Cc2ccccc2)c2ccccc2c1=O	> 25 µM (inactive)	> 25
CCOC(=O)c1c(-c2ccc(C)cc2)csc1NC(=O)C1CCCO1 (stereo not given)	> 25 µM (inactive)	> 25
Cc1ccc(-n2cc(C(=O)c3ccc(F)cc3)nn2)cc1Cl	> 25 µM (inactive)	> 25
CC(C)Cc1ccc(C(C)C(=O)OCC(=O)c2c[nH]c3ccccc23)cc1 (stereo not given)	17.5 µM	> 25
CCOc1ccc(C(=O)C(CCC(CN(C)C)C(=O)c2ccc(OCC)cc2)CN(C)C)cc1 (stereo not given)	20.4 µM	> 25

Reference: PubChem BioAssay AID1361 (SRMLSC, 2008)
